The text below walks through data of patent US11512057B2, “Unsaturated hydrocarbon pyrimidine thioether compounds and preparation method and application thereof” (Zhejiang University of Technology, priority 2018, dated 2022).

Common to all, as to format: in vivo
In experiment [1] the test system is adults of Tetranychus cinnabarinus. Put plainly: Acaricidal comparison, spray method on adults of Tetranychus cinnabarinus. Here is the method: Spray method: the test target was Tetranychus cinnabarinus, that is, broad bean leaves inoculated with adults of Tetranychus cinnabarinus were placed under the spray treatment of Potter spray towers. After treatment, the Tetranychus cinnabarinus was placed in an observation room and cultured at 25˜27° C., and the results were investigated after 48 hours. The brush was used to touch the insect body, and the unresponsive were regarded as dead insects. The test concentrations of the compounds on killing cinnabarin were 50, 25, 12.5, 6.25, 3.125 mg/L.

Experiment [2] concerns powdery mildew of cucumber. Kind of experiment: Prevention experiment of powdery mildew of cucumber, living pot assay. Conditions: 200 ppm; cucumber seedlings, about 10 days. Here is the method: The living pot assay method was adopted, that is, the sample of the test compound was dissolved with a small amount of DMF solvent (the kind of solvent such as acetone, methanol, DMF, etc., is selected according to the solvency of the sample, and the volume ratio of the solvent amount to the spray amount is equal to or less than 0.05), diluted with water containing 0.1% Tween 80, and formulated into the test solution with a desired concentration. Cucumber seedlings at leaf period with the same growth period was sprayed evenly with the prepared agent, and aired. Each concentration was one treatment, each treatment was repeated 3 times, a control agent and a water of blank control were set separately. The fresh powdery mildew spores on the leaves of cucumbers were washed and filtered with double gauze to prepare a suspension with a concentration of about 100,000 spores/mL. The samples were inoculated by spraying, the inoculated samples were moved into artificial climate, and relative humidity was maintained at 60-70%, the temperature was maintained at 23° C., after about 10 days, grading investigation was carried out according to the morbidity of the blank control, control effect was calculated according to disease index.

The test system of experiment [3] is eggs of Tetranychus cinnabarinus. Kind of experiment: Acaricidal comparison, egg test. The procedure: Egg test: each treated broad bean leave was inoculated with 10 adults of Tetranychus cinnabarinus, and the adults were removed after the eggs were laid for 24 hours. The leaves with eggs were sprayed under Potter spray towers. After treatment, the eggs of Tetranychus cinnabarinus were placed in an observation room and cultured at 25˜27° C. And the test was examined until the eggs under the blank treatment completely hatched out. The concentration of the compound that kills the eggs of Tetranychus cinnabarinus was 100, 50, 25, 12.5, 6.25 mg/L.

In the next experiment the test system is armyworm. Kind of experiment: Activity test of armyworm, leaf-dipping method. Conditions: 500 mg/L, 3rd instar larvae, after 3 days. The procedure:
A certain amount of the original drug was weighed by an analytical balance (0.0001 g), and dissolved in DMF containing 1% Tween-80 emulsifier to prepare a 1% mother liquor, which was then diluted with distilled water for later use.
The insecticidal efficacy was evaluated by a leaf-dipping method with the armyworm as a target and a spray method with Tetranychus cinnabarinus and Aphis craccivora Koch as a target.
Leaf-dipping method: the target for the test was the armyworm, and corn leaves in an appropriate amount were fully infiltrated in the prepared liquid, then dried naturally, placed in culture dishes with filter papers, inoculated with 3rd instar larvae of the armyworm at 10 heads/dish, and placed in an observation room and cultured at 24˜27° C. the results were investigated after 3 days. A brush was used to touch the insect bodies, and the unresponsive were regarded as dead insects.

Experiment [4] deals with nymphs of Tetranychus cinnabarinus. Kind of experiment: Acaricidal comparison, nymph test. Here is the method: Nymph test: broad bean leaves were inoculated with 10 adult mites, and the adults were removed after laying eggs for 24 hours. The eggs were fed in insect rearing room, and when they hatched into nymphs, they were sprayed with a sprayer. After treatment, the leaves with the nymphs were placed in an observation room and cultured at 25-27° C., and the results were investigated after 48 hours. A brush was used to touch the insect bodies, and the unresponsive were regarded as the dead. The test concentrations of the compound on killing cinnabarin were 5, 2.5, 1.25, 0.625, 0.3125 mg/L.

For orientation: mortality means the share of the test organisms that died. High values mean fewer survivors, low ones more survivors.

With `CO/C=C(/C(=O)OC)c1ccccc1COc1cc(C(F)(F)F)nc(SCC=C(Cl)Cl)n1` [Compound 67], in experiment [1] (50, 25, and 12.5 mg/L), the “lethal rate against adult mites compared with fluacrypyrim” value is given as “better than that of fluacrypyrim”. In experiment [2], the “effect of preventing powdery mildew” value is reported as 100%. Moreover, the “lethal rate on eggs of Tetranychus cinnabarinus compared with fluacrypyrim” value in experiment [3] (100, 50, 25, 12.5, 6.25 mg/L) is listed as “better than that of fluacrypyrim”. For the same molecule, the “lethal rate on armyworm larvae” value in the experiment on armyworm is recorded as 100%. Also, the “lethal rate on nymphs of Tetranychus cinnabarinus compared with fluacrypyrim” value in experiment [4] (5, 2.5, 1.25, 0.625, 0.3125 mg/L) was “better than that of fluacrypyrim”.
With `CO/C=C(/C(=O)OC)c1ccccc1COc1cc(C(F)(F)F)nc(OC(C)C)n1` [Fluacrypyrim, fluacrypyrim], in experiment [1] (Tetranychus cinnabarinus, 48 h), the mortality at 3.125 µg/mL came out at 39.5%, the mortality at 6.25 µg/mL was 64.6%, the mortality at 12.5 µg/mL turned out to be 70.6% and the mortality at 25 µg/mL is 75.9%. In experiment [1] (Tetranychus cinnabarinus, 48 h), this molecule registered a mortality at 50 µg/mL of 88.9%. In experiment [3] (Tetranychus cinnabarinus), this molecule gave a mortality at 6.25 µg/mL of 10.8%, a mortality at 12.5 µg/mL of 13.6%, a mortality at 25 µg/mL of 32.2% and a mortality at 50 µg/mL of 54.9%. In experiment [3] (Tetranychus cinnabarinus), the mortality at 100 µg/mL was 75%. In experiment [4] (Tetranychus cinnabarinus, 48 h), this molecule yielded a mortality at 0.3125 µg/mL of 7.74%, a mortality at 0.625 µg/mL of 17.1%, a mortality at 1.25 µg/mL of 28.8% and a mortality at 2.5 µg/mL of 55.3%. This molecule gave a mortality at 5 µg/mL in experiment [4] (Tetranychus cinnabarinus, 48 h) of 82.5%.
